According to PubChem BioAssay (NCI):
Values joined by “and” are separate entries in the source; they are usually repeats but may differ in a detail not shown here. Equal entries are not always repeated.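 Tested at 5 concentrations; 48 h exposure; 96-well plates; endpoints linearly interpolated, else capped at highest concentration. GI50 marks 50% less growth. At the TGI there is no net growth.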

Assays:
Experiment in all cases: NCI tumour cell line growth inhibition, 48 h
[1] = test system: HL-60(TB) leukemia
[2] = test system: COLO 205 colon
[3] = test system: CAKI-1 renal
[4] = test system: OVCAR-8 ovarian
[5] = test system: OVCAR-5 ovarian
[6] = test system: HT29 colon
[7] = test system: SW-620 colon
[8] = test system: MALME-3M melanoma
[9] = test system: HOP-92 NSCLC
[10] = test system: RPMI-8226 leukemia

Compound	TGI [1]	TGI [2]	TGI [3] [µM]	TGI [4]	TGI [5]	TGI [6]	TGI [7] [µM]	TGI [8]	TGI [9]	TGI [10]	GI50 [1] [µM]	GI50 [2]	GI50 [3] [µM]	GI50 [9]	GI50 [4] [µM]	GI50 [6]	GI50 [7] [µM]	GI50 [10] [µM]	GI50 [5]	GI50 [8] [µM]
O=S(=O)(O)C(O)/C=C/c1ccccc1 (centres undefined)	> 100 µM	> 100 µM	> 100	> 100 µM	> 100 µM	> 100 µM	> 100	> 100 µM												
Cc1cc(C)nc(NS(=O)(=O)c2ccc(NC(=O)c3cccc4c(=O)c5ccccc5[nH]c34)cc2)n1	47.7 µM	34.5 µM	> 100	41.1 µM		43.9 µM	55.5	33.8 µM	44 µM	83 µM										
CNC(=O)c1cc(Oc2ccc3c(c2)sc2nc(-c4ccc(N)cc4)cn23)ccn1		27.2 µM	> 100	> 100 µM	> 100 µM	0.802 µM	> 100		> 100 µM	26.3 µM	0.108	0.305 µM	0.329	5.98 µM	0.39	0.197 µM	0.153	0.32		
COc1nc2c(cc1S(=O)(=O)c1ccccc1)CCc1c-2cnn1-c1ccccc1Cl	> 100 µM	> 100 µM	> 100	> 100 µM	> 100 µM	> 100 µM	> 100			> 100 µM	4.98	9.07 µM	5.2		8.7	4.73 µM	> 100	5.39	> 100 µM	
C#CC(C)(C)Oc1cc(O)c2c(=O)c3ccccc3n(C)c2c1	> 100 µM	> 100 µM	> 100	> 100 µM	> 100 µM	> 100 µM		> 100 µM	> 100 µM											
COC(=O)[C@@H](C)C[C@H](Cc1ccccc1)NC(=O)c1nc([C@@H](C[C@H](C(C)C)N(C)C(=O)[C@@H](NC(=O)[C@H]2CCCN2C)C(C)C)OC(C)=O)sc1C	< 0.0025 µM	0.0326 µM		> 25 µM	> 25 µM		> 25		> 25 µM	> 25 µM	< 0.0025	0.00275 µM		7.33 µM	< 0.0025		< 0.0025	< 0.0025	0.0105 µM	
COc1cc([C@@H]2c3cc4c(cc3[C@@H](NC(=O)c3cccc([N+](=O)[O-])c3)C3COC(=O)[C@@H]32)OCO4)cc(OC)c1O (some centres undefined)		> 100 µM	4.31	7.06 µM	8.54 µM	11.7 µM	24.3	4.77 µM	22.8 µM	> 22.1 µM										
COC(=O)c1c(OC)cccc1C(=O)O	> 100 µM	> 100 µM	> 100	> 100 µM	> 100 µM	> 100 µM	> 100	> 100 µM		> 100 µM										
CCN1CCN(c2nc(NCCNc3ccnc4cc(Cl)ccc34)c3ccccc3n2)CC1	4.01 µM	2.07 µM		5.96 µM	9.14 µM	7.47 µM	5.14	3.58 µM	2.49 µM	4.41 µM	2.01	0.505 µM		1.14 µM	1.89	0.793 µM	0.707	1.54	2.56 µM	1.95
CCCCCCCCCCCCCCC1OC(=O)c2ccccc21 (centres undefined)	40.7 µM			> 100 µM	> 100 µM	> 100 µM	> 100	> 100 µM		> 100 µM										
Cc1nc2nnc(C)n2c2c1C(=O)Nc1ccccc1N2	> 100 µM	> 100 µM		> 100 µM		> 100 µM	> 100	> 100 µM	> 100 µM	> 100 µM										
COc1ccc(CNC(=O)COc2ccc(/C=N/Nc3nc4ccccc4s3)cc2)cc1	> 100 µM		5.21	> 100 µM	> 100 µM		> 100	3.89 µM	4.41 µM	> 100 µM	> 100		1.98	1.4 µM	3.93		5.23	2.13	4.57 µM	1.55
CC1CCC[P+](Cc2ccccc2)(c2ccccc2)CC1 (centres undefined)	37.8 µM	> 100 µM		> 100 µM	> 100 µM		> 100	42.6 µM		51.4 µM										
O=c1[nH]c(=O)n(C2CC(O)C(CO)O2)cc1C#Cc1c(F)c(F)c(F)c(F)c1F (centres undefined)		> 100 µM	> 100	> 100 µM	> 100 µM	> 100 µM	> 100	> 100 µM		> 100 µM										
CCC1CCC2CCCC(C)N12 (centres undefined)	> 100 µM	> 100 µM	> 100	> 100 µM			> 100	> 100 µM	> 100 µM	> 100 µM										
O=C1/C(=C/c2ccccc2)CN(C(=O)Oc2ccc(Cl)cc2)C/C1=C\c1ccccc1	4.5 µM	9.53 µM		3.6 µM	23.2 µM	2.97 µM	2.77	26.7 µM	42.3 µM	0.902 µM										
O=c1c(Cl)c(Cl)cnn1-c1ccccc1	10.7 µM and 2.11 µM	3.62 µM and 7.92 µM		6.05 µM and 11.5 µM	38.8 µM and 19.8 µM	3.38 µM and 8.06 µM	5.5	7.91 µM and 9.73 µM	3.61 µM and 16 µM	> 38.7 µM and 27 µM	0.774	1.74 µM and 3.54 µM		1.98 µM and 7.58 µM		1.75 µM and 3.77 µM	2		19.7 µM and 9.53 µM	
OCCNCO	> 100 µM	> 100 µM	> 100	> 100 µM	> 100 µM	> 100 µM	> 100		> 100 µM	> 100 µM										
COc1ccc(N=Cc2cc(OC)c(OC)c(OC)c2)cc1			> 100	> 100 µM	> 100 µM	> 100 µM	30	> 100 µM	> 100 µM	59.6 µM			> 100							
O=C1CC[C@H]2CNC(=O)C[C@H]2C1	> 100 µM	> 100 µM	> 100	> 100 µM		> 100 µM	> 100	> 100 µM	> 100 µM	> 100 µM										
O=C1c2ccccc2-c2c1c1cc3c(cc1c(=O)n2CCCCl)OCO3			82.4	> 100 µM		> 100 µM	> 100		> 100 µM	> 100 µM			20.4	41.1 µM	22.6	> 100 µM	94.5	78.6		
